Test results from patent US9790351B2, “Fat-binding compositions” (Eastpond Laboratories Limited, priority 2010, dated 2017).
Structures can show the parent of a compound that is named as a salt. Blank lines part the entries; values can stand above or below the compound they belong to.

Columns and labels:
[1] = Phase-solubility study of binding constant (Higuchi et al.); settings: in water, 1:1 complex
From the text: The resulting 1:1, molar ratio betanin/alpha-cyclodextrin inclusion complex was a red colored, free flowing powder containing 32% betanin by weight, as determined by visible spectrophotometry. […] N. Reilly, Wiley, New York, 1965. vol. 4. pp. 117-212, the complete disclosure of which is hereby incorporated by reference for all purposes. The binding constant of the complex was Kass=85-105 M^−1

[2] = Binding constants of flavorants, microcalorimetric method and GC flavorant retention
From the text: The tested compounds included those that are generally soluble or miscible in water. The complexes with the cyclodextrins were formed using methods corresponding to the two specifically described examples below involving apricot flavorant and banana flavorant.
Two types of methods were used to determine the apparent binding constants noted above. The “microcalorimetric” method was used as described in Lewis et al., “Thermodynamics of binding of guest molecules to alpha- and beta-cyclodextrins,” J. Chem. Soc. Perkin. Trans. 2, (15) pp. 2081-2085, 1973, the complete disclosure of which is hereby incorporated by reference for all purposes. Also, by measuring the flavorant retention in the inclusion complexes and the corresponding mechanical mixtures (identical composition except that linear dextrin is used in place of cyclodextrins) with gas chromatography, according to the method described by Reineccius et al., “Encapsulation of flavors using cyclodextrins: comparison of flavor retention in alpha, beta, and gamma types,” Journal of Food Science, 67(9), pp. 3271-3279 (2002), the complete disclosure of which is hereby incorporated by reference for all purposes.

[3] = Association constants by capillary electrophoresis; type: binding; settings: for Association constant, α-Cyclodextrin / Association constant, β-Cyclodextrin / Association constant, γ-Cyclodextrin: aqueous system, mean of three parallel determinations
Method: The association or binding constants of several selected weak complex-forming guest molecules with alpha-, beta- and gamma-cyclodextrins were experimentally determined. Capillary electrophoresis was utilized to determine the complex binding constants of selected dietary supplements thiamine, niacin and L-arginine in aqueous systems. The following values were determined:
Similarly, capillary electrophoresis was utilized to determine the complex binding constants of selected flavorants ethyl acetate, isoamyl acetate, diacetyl, and N,N-dimethyl formamide with alpha-, beta- and gamma-cyclodextrins.

[4] = Apparent binding constant determined by chromatography; settings: in water at 25° C.
Method: Also, the apparent binding constant of the alpha-cyclodextrin N-tert-butyl-hydroxylamine complex was determined by chromatography.

[5] = Laser light scattering particle size distribution of dissolved alpha-cyclodextrin (aggregation); type: physicochemical
From the text: These solutions were then subjected to laser light scattering to determine the distribution of particle sizes in each solution. […] Cyclodextrin molecules in a less aggregated form likely include more available binding sites for complex formation. This experiment thus provides evidence that is consistent with the conclusion that carbonation allows for the availability of more cyclodextrin binding sites for forming complexes with fats.

[6] = Fat binding by a mixture of alpha-, beta- and gamma-cyclodextrins in water (precipitated inclusion complex); settings: 0.01M each cyclodextrin and palmitic acid, 4 hours, ambient temperature
From the text: This reaction mixture was stirred for four hours at ambient temperature. […] The precipitate was removed by centrifugation.

[7] = cited from earlier work
[8] = test system: HepG2 cells; settings: cited from earlier work

Compound: CCCCOC(C)=O [Butyl acetate]
Calculated Binding Constants, complex formed with alpha-cyclodextrin [2]: 72 M⁻¹
Calculated Binding Constants, complex formed with beta-cyclodextrin [2]: 85 M⁻¹

Compound: CCOC(C)=O [Ethyl acetate]
Calculated Binding Constants, complex formed with alpha-cyclodextrin [2]: 60 M⁻¹
Calculated Binding Constants, complex formed with beta-cyclodextrin [2]: 100 M⁻¹
Association constant K, α-Cyclodextrin [3]: 37 M⁻¹
Association constant K, β-Cyclodextrin [3]: 10 M⁻¹
Association constant K, γ-Cyclodextrin [3]: 9 M⁻¹

Compound: N=C(N)NCCC[C@H](N)C(=O)O [L-arginine]
Association constant, α-Cyclodextrin [3]: 21 ± 2
Association constant, β-Cyclodextrin [3]: 100 ± 5
Association constant, γ-Cyclodextrin [3]: 9 ± 2

Compound: CC(C)(C)NO [N-tert-butyl-hydroxylamine]
apparent binding constant [4]: 80 to 105 M⁻¹

Compound: O=C(O)c1cccnc1 [Nicotinic acid]
Association constant, α-Cyclodextrin [3]: 17 ± 2
Association constant, β-Cyclodextrin [3]: 37 ± 3
Association constant, γ-Cyclodextrin [3]: 10 ± 2

Compound: Cc1ncc(C[n+]2csc(CCO)c2C)c(N)n1 [Thiamine HCl]
Association constant, α-Cyclodextrin [3]: 20 ± 2
Association constant, β-Cyclodextrin [3]: 73 ± 3
Association constant, γ-Cyclodextrin [3]: 8 ± 1

Compound: CN(CC(=O)O)C(=N)N [creatine]
intelligence ([7]; diet supplementation, compared with placebo): significantly increased intelligence
cognitive ability ([7]; elderly): improved cognitive ability

Compound: CC(=O)C(C)=O [diacetyl]
Association constant K, α-Cyclodextrin [3]: 28 M⁻¹
Association constant K, β-Cyclodextrin [3]: 43 M⁻¹
Association constant K, γ-Cyclodextrin [3]: 58 M⁻¹

Compound: CCCCC(=O)OCC [ethyl valerate]
Calculated Binding Constants, complex formed with alpha-cyclodextrin [2]: 46 M⁻¹
Calculated Binding Constants, complex formed with beta-cyclodextrin [2]: 80 M⁻¹

Compound: CC(=O)OCCC(C)C [isoamyl acetate]
Association constant K, α-Cyclodextrin [3]: 729 M⁻¹
Association constant K, β-Cyclodextrin [3]: 382 M⁻¹
Association constant K, γ-Cyclodextrin [3]: 32 M⁻¹

Compound: NCCS(=O)(=O)O [taurine]
secretion of apolipoprotein and lipids [8]: reduce the secretion of apolipoprotein 8100 and lipids

Continued, values first:

binding constant Kass [1]: 85 to 105 M⁻¹
Compound: O=C(O)C1=C/C(=C/C=[N+]2/c3cc(O)c(OC4OC(CO)[C@@H](O)C(O)C4O)cc3CC2C(=O)[O-])CC(C(=O)O)N1 (stereo in doubt) [betanin]

Calculated Binding Constants, complex formed with alpha-cyclodextrin [2]: 85 M⁻¹
Calculated Binding Constants, complex formed with beta-cyclodextrin [2]: 40 M⁻¹
Compound: CCCCCOC(C)=O [Amyl acetate]

Calculated Binding Constants, complex formed with alpha-cyclodextrin [2]: 45 M⁻¹
Calculated Binding Constants, complex formed with beta-cyclodextrin [2]: 34 M⁻¹
Compound: C=CCOC(=O)CCC [allyl butyrate]

particle size of cyclodextrin particles ([5]; 2% w/v in carbonated water): < 500 nm
particle size of the majority of cyclodextrin particles ([5]; 2% w/v in non-carbonated tap water): ~1,000 nm
share of the cyclodextrin/palmitic acid complex in the precipitated complex [6]: about 78%
Compound: OC[C@H]1O[C@@H]2O[C@H]3[C@H](O)[C@@H](O)[C@@H](O[C@H]4[C@H](O)[C@@H](O)[C@@H](O[C@H]5[C@H](O)[C@@H](O)[C@@H](O[C@H]6[C@H](O)[C@@H](O)[C@@H](O[C@H]7[C@H](O)[C@@H](O)[C@@H](O[C@H]1[C@H](O)[C@H]2O)O[C@@H]7CO)O[C@@H]6CO)O[C@@H]5CO)O[C@@H]4CO)O[C@@H]3CO [alpha-cyclodextrin]

Calculated Binding Constants, complex formed with alpha-cyclodextrin [2]: 67 M⁻¹
Calculated Binding Constants, complex formed with beta-cyclodextrin [2]: 45 M⁻¹
Compound: CCCCCOC(=O)CCCC [amyl valerate]

Calculated Binding Constants, complex formed with alpha-cyclodextrin [2]: 95 M⁻¹
Calculated Binding Constants, complex formed with beta-cyclodextrin [2]: 110 M⁻¹
Compound: CCCCOC(=O)CC(C)C [butyl isovalerate]

share of the cyclodextrin/palmitic acid complex in the precipitated complex [6]: undetectable amounts
Compound: OC[C@H]1O[C@@H]2O[C@H]3[C@H](O)[C@@H](O)[C@@H](O[C@H]4[C@H](O)[C@@H](O)[C@@H](O[C@H]5[C@H](O)[C@@H](O)[C@@H](O[C@H]6[C@H](O)[C@@H](O)[C@@H](O[C@H]7[C@H](O)[C@@H](O)[C@@H](O[C@H]8[C@H](O)[C@@H](O)[C@@H](O[C@H]9[C@H](O)[C@@H](O)[C@@H](O[C@H]1[C@H](O)[C@H]2O)O[C@@H]9CO)O[C@@H]8CO)O[C@@H]7CO)O[C@@H]6CO)O[C@@H]5CO)O[C@@H]4CO)O[C@@H]3CO [gamma-cyclodextrin]

Calculated Binding Constants, complex formed with alpha-cyclodextrin [2]: 70 M⁻¹
Calculated Binding Constants, complex formed with beta-cyclodextrin [2]: 98 M⁻¹
Compound: Cc1occc(=O)c1O [maltol]
